These results are taken from US20200390102A1, “SYNERGISTIC ANTIMICROBIAL COMPOSITION” (DDP SPECIALTY ELECTRONIC MATERIALS US, INC., priority 2017, published 2020).

Test [1] concerns Pseudomonas aeruginosa (ATCC […]) and Escherichia coli (ATCC 10145) combined inoculum. Briefly: Synergy in the planktonic phase, 48 h biocide challenge with regrowth (turbidity) readout. It counts as cell-based. The note with it: P. aeruginosa/E. coli, 48 h challenge at 30° C., phosphate buffer pH 7.3. Here is the method: Pseudomonas aeruginosa (ATCC […]) and Escherichia coli (ATCC 10145) cultures were separately prepared from glycerol stocks. First they were streak plated and validated with a microscope. Single colonies were picked and used to inoculate 200 mL shake flasks that were grown statically overnight at 30° C. (30 grams/L Tryptic Soy Broth) to produce the initial inoculum. A deep-well 96 well challenge plate (2 mL maximum well volume) was prepared using 900 μL/well phosphate buffer at pH 7.3, (0.0027M potassium chloride, 0.137 M sodium chloride). Inoculation took place at the start of the experiments (with a 100 μL combined inoculum, adding to the 900 μL buffer to total 1 mL/well). The inoculum added between 1*10^8 and 1*10^9 total cells/mL based on OD600 measurement. […]
The inoculated assay block was challenged at 30° C. for 48 hours. […] This was done in triplicate for each point (the triplicate is already present in the biocide block viz. each point is truly determined in triplicate). […]
The recovery plates were subsequently read (checked for microbial growth) at 72 hours after addition of the culture, to recovery media. Ranking of biocidal efficacy was done by recording the development of turbidity within each well (determined by visual inspection). […] Ranking was done per average value of three data points determined per experiment. (Recorded in log regrowth). […]

Test [2] deals with Thermus thermophilus (DSM: 579). Briefly: Synergy in the planktonic phase, 48 h biocide challenge at 60° C. with dilution-series regrowth readout. Format: cell-based. As to the method:
Experiments using Thermus thermophdus (DSM: 579) as a test organism were also performed. In these experiments, the total concentration of biocides was 300 ppm for the combined total actives, the temperature at which the experiments were performed was 60° C., the media to grow Thermus thermophdus was DSMZ DSM 74-Media at pH 8.0. (Yeast extract (BD Difco) 4.0 g, Proteose peptone Nr. 3 (BD Difco) 8.0 g, NaCl 2.0 g, distilled water added to 1 L). The challenging with biocides against Thermus thermophilus was done in a standard ocean matrix with a similar salinity of 2% (similar to the media where they are cultured in). Once again, each experiment was done in triplicate.
The inoculated assay block was challenged at 60° C. for 48 hours. The inoculum prepared added between to 1*10^8 to 1*10^9 total cells/mL (determined by MPN analysis). After 48 hours of challenge with biocide, 20 μL aliquots of each treatment (well) were added to one of several 96 well plates with DSM 74-media. These 96 well plates were filled with ‘recovery’ media (DSM 74-Media). One of these plates was prepared for each column of the assay block. 180 μL recovery media was added to each well of a 96 well plate, except for column 1 of the recovery plate. This column was filled with 180 μL of one column of the assay block. The last three columns on the recovery plate were not pipetted. These columns represented the no template control for verifying proper plate set up and data reliability. The assay block sample was then diluted in steps of 10 fold by transferring 20 μL from e.g. columns 1 to column 2 and from column 2 to column 3 (until column 9) by applying a multichannel pipet in each recovery plate. […]
The recovery plates were allowed to regrow for 4-6 days and subsequently read (checked for microbial growth). This was done in duplicate for each point (the duplicate is already present in the biocide block viz. each point is truly determined in duplicate). […] Turbidity was checked in log scale reading the recovery plates. Turbidity was recorded via presence/absence and gave the log kill range (from the made dilution series). […]

`O=CC=O` [Glyoxal, glyoxal]: the “Glyoxal stand alone 48 h pass” value stood at 875 ppm in test [1] (glyoxal alone) and 59 ppm in test [2] (T. thermophilus, glyoxal alone, 48 h challenge at 60° C., ocean matrix 2% salinity). Moreover, in test [2] (vs. Pseudomonas aeruginosa and E. coli), the “Sensitivity of Thermus thermophilus to Glyoxal” value was “*Thermus thermophilus is more sensitive to Glyoxal vs. Pseudomonas aeruginosa and E. coli”.
For “tetrakis(hydroxymethyl)phosphonium sulfate [THPS]”, the “THPS stand alone 48 h pass” value came to 130 ppm in test [1] (THPS alone) and 300 ppm in test [2] (T. thermophilus, THPS alone, 48 h challenge at 60° C., ocean matrix 2% salinity).
